Measurements as given in patent publication US6833456B2, “Indolyl-urea derivatives of thienopyridines useful as antiangiogenic agents, and methods for their use” (Agouron Pharmaceuticals, Inc., priority 2002, dated 2004).
“And” between values parts separate entries of the source, which are not always exact repeats. Equal entries are not always repeated.

Legend:
[1] = biological target: T1, KDR (VEGFR2) (Homo sapiens, UniProt P35968); assay: KDR (VEGFR2) phosphorylation in PAE-KDR cells assay; assay type: cell-based; details: PAE cells overexpressing human KDR, VEGF stimulated; read-out: PAE KDR autophos IC50
T1 construct: expressed in transfected cells; host or cells: porcine aorta endothelial (PAE) cells
How it was run: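 PAE cells overexpressing human KDR, serum-starved 16 h (0.1% FBS), treated with compound 1 h at 37° C (0.5% DMSO), then stimulated 8 min with 500 ng/ml VEGF plus 2 mM Na3VO4. Lysate KDR phosphotyrosine measured by capture ELISA (anti-pY HRP, 450 nm); IC50 by four-parameter fit.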

[2] = biological target: T2, unphosphorylated VEGF-R2Δ50 (FLVK) (Homo sapiens, UniProt P35968, DEL940-989/E990V); assay: VEGF-R2 coupled spectrophotometric assay, unphosphorylated construct (FLVK); assay type: biochemical; details: for inhibition at 0.05 µM: percent inhibition at 50 nM
T2 construct: VEGF-R2Δ50 contains residues 806-939 and 990-1171; made in house; host or cells: baculovirus/insect cell system
How it was run: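 Human VEGF-R2Δ50 cytosolic kinase (residues 806-939/990-1171, E990V), baculovirus-expressed, unphosphorylated form. PK/LDH-coupled NADH oxidation at 340 nm with 20 mM poly(E4Y1), 3 mM ATP, 60 mM MgCl2, 2 mM MnCl2, 200 mM HEPES pH 7.5, 5-40 nM enzyme; Ki fitted by Morrison equation.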

[3] = test system: HUVEC; assay: bFGF HUVEC proliferation; assay type: cell-based, human; details: bFGF stimulated HUVEC

T1 sequence (P35968 20-1356): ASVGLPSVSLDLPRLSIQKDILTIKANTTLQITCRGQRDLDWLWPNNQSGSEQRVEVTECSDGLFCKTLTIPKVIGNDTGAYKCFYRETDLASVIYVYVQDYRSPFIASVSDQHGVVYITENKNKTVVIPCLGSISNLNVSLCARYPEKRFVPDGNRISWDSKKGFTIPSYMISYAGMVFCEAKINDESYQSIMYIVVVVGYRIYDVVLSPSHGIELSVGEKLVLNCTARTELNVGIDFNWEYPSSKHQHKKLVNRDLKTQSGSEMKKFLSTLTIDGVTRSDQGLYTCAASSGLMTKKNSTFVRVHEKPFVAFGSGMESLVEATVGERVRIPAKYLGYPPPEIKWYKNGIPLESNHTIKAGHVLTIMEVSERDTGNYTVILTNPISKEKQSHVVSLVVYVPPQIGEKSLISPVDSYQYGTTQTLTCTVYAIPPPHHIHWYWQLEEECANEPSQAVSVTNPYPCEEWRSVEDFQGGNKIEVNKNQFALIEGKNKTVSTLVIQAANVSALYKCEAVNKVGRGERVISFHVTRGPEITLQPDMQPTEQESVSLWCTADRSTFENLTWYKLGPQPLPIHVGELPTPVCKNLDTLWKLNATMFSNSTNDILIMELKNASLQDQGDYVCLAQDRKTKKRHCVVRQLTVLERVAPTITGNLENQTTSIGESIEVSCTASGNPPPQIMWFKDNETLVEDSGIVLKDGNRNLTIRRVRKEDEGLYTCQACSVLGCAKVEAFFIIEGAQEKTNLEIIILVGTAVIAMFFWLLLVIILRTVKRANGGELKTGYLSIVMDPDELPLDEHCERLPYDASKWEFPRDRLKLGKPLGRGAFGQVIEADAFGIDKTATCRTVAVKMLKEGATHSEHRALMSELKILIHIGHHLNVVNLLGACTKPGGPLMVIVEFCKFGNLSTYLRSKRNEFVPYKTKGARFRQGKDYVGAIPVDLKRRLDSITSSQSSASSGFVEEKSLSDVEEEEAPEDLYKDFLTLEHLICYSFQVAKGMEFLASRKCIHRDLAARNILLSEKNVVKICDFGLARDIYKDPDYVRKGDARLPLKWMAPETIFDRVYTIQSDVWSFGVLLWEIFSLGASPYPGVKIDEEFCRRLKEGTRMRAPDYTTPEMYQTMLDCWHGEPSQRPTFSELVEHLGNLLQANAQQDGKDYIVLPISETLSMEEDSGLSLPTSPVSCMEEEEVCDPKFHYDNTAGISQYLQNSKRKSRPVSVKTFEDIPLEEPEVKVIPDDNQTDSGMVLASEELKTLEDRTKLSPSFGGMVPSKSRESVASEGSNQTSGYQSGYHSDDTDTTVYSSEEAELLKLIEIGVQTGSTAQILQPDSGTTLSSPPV
T2 sequence (P35968 with tags, fused parts or gaps DEL940-989/E990V limits assumed): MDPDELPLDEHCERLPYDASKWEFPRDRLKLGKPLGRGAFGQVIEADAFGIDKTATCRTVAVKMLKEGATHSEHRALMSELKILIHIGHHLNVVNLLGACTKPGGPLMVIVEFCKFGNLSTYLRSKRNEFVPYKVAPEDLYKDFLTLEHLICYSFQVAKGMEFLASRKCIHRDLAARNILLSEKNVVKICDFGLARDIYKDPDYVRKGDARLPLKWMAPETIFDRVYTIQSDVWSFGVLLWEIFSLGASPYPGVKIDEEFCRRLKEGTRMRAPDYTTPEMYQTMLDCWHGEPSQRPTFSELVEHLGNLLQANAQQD

SMILES	IC50 [1]	Ki [2]	inhibition at 0.05 µM [2]	IC50 ([3]; Homo sapiens, HUVEC)	IC50 [3]
CNC(=O)n1c(C)cc2cc(Nc3ccnc4cc(C(=O)N5CCC[C@@H]5CO)sc34)ccc21 [Example 1a, 5-[2-(2R-Hydroxymethyl-pyrrolidine-1-carbonyl)-thieno[3,2-b]pyridin-7-ylamino]-2-methyl-indole-1-carboxylic acid methylamide]	1.06 nM	0.69 nM	90%	59 nM	–
CNC(=O)n1c(C)cc2cc(Nc3ccnc4cc(C(=O)N5CCC[C@@H]5COC)sc34)ccc21 [Example 1b, 5-[2-(2R-Methoxymethyl-pyrrolidine-1-carbonyl)-thieno[3,2-b]pyridin-7-ylamino]-2-methyl-indole-1-carboxylic acid methylamide]	0.28 nM and 0.25 nM	0.96 nM	88%	80 nM	–
Cc1cc2cc(Nc3ccnc4cc(C(=O)N5CCC[C@@H]5CO)sc34)ccc2n1C(=O)NC1CC1 [Example 1c, 5-[2-(2R-Hydroxymethyl-pyrrolidine-1-carbonyl)-thieno[3,2-b]pyridin-7-ylamino]-2-methyl-indole-1-carboxylic acid cyclopropylamide]	–	0.67 nM	98%	158 nM	–
Cc1cc2cc(Nc3ccnc4cc(C(=O)N5CC[C@H](O)C5)sc34)ccc2n1C(=O)NC1CC1 [Example 1k, 5-[2-(3S-Hydroxy-pyrrolidine-1-carbonyl)-thieno[3,2-b]pyridin-7-ylamino]-2-methyl-indole-1-carboxylic acid cyclopropylamide]	2.1 nM and 5.4 nM and 4.74 nM	0.63 nM	97%	26.6 nM	–
CNC(=O)n1c(C)cc2cc(Nc3ccnc4cc(C(=O)N5CC[C@@H](OC)C5)sc34)ccc21 [Example 1l, 5-[2-(3R-Methoxy-pyrrolidine-1-carbonyl)-thieno[3,2-b]pyridin-7-ylamino]-2-methyl-indole-1-carboxylic acid methylamide]	–	–	94%	6.1 nM	–
CNC(=O)n1c(C)cc2cc(Nc3ccnc4cc(C(=O)N5CC[C@@H](O)C5)sc34)ccc21 [Example 1n, 5-[2-(3R-Hydroxy-pyrrolidine-1-carbonyl)-thieno[3,2-b]pyridin-7-ylamino]-2-methyl-indole-1-carboxylic acid methylamide]	4.01 nM and 2.77 nM	–	94%	30.2 nM	19.4 nM
C#CCNC(=O)n1c(C)cc2cc(Nc3ccnc4cc(C(=O)N5CC[C@@H](O)C5)sc34)ccc21 [Example 1o, 5-[2-(3R-Hydroxy-pyrrolidine-1-carbonyl)-thieno[3,2-b]pyridin-7-ylamino]-2-methyl-indole-1-carboxylic acid prop-2-ynylamide]	1.6 nM	0.37 nM	96%	49.6 nM	52 nM
Cc1cc2cc(Nc3ccnc4cc(-c5nccn5C)sc34)ccc2n1C(=O)NC1CC1 [Example 2d, 5-(2-[1-methyl-1H-imidazol-2-yl]thieno[3,2-b]pyridin-7-ylamino)-2-methylindole-1-carboxylic acid cyclopropylamide]	–	0.32 nM	98%	34 nM	–
Cc1cc2cc(Nc3ccnc4cc(C(=O)N5CCC[C@H]5CO)sc34)ccc2n1C(=O)NC1CC1 [Example 2e, 5-(2-[(S)-2-(hydroxymethyl)pyrrolidine-1-carbonyl]thieno[3,2-b]pyridin-7-ylamino)-2-methylindole-1-carboxylic acid cyclopropylamide]	1.32 nM and 1.38 nM	0.16 nM	95%	27.8 nM	31.6 nM

Continued, in another order:

IC50 [1]	Ki [2]	inhibition at 0.05 µM [2]	SMILES	IC50 ([3]; Homo sapiens, HUVEC)	IC50 [3]
0.72 nM and 0.33 nM and 0.35 nM	0.45 nM	91%	CNC(=O)n1c(C)cc2cc(Nc3ccnc4cc(-c5nc(C(C)(C)O)cs5)sc34)ccc21 [Example 3a, 5-{2-[4-(1-Hydroxy-1-methyl-ethyl)-thiazol-2-yl]-thieno[3,2-b]pyridin-7-ylamino}-2-methyl-indole-1-carboxylic acid methylamide]	–	–
0.32 nM and 0.444 nM	0.21 nM	95%	Cc1cc2cc(Nc3ccnc4cc(-c5nc(C(C)(C)O)cs5)sc34)ccc2n1C(=O)NC1CC1 [Example 3b, 5-{2-[4-(1-Hydroxy-1-methyl-ethyl)-thiazol-2-yl]-thieno[3,2-b]pyridin-7-ylamino}-2-methyl-indole-1-carboxylic acid cyclopropylamide]	–	–
–	1.1 nM	96%	CNC(=O)n1c(C)cc2cc(Oc3ccnc4cc(C(=O)N5CCC[C@H]5COC)sc34)ccc21 [Example 4a, 5-(2-[(S)-2-(methoxymethyl)pyrrolidine-1-carbonyl]thieno[3,2-b]pyridin-7-yloxy)-2-methylindole-1-carboxylic acid methylamide]	33 nM	34 nM
0.37 nM and 0.26 nM and 0.55 nM	0.41 nM	91%	COC[C@@H]1CCCN1C(=O)c1cc2nccc(Oc3ccc4c(c3)cc(C)n4C(=O)NCC#CCO)c2s1 [Example 4d, 5-(2-[(S)-2-(methoxymethyl)pyrrolidine-1-carbonyl]thieno[3,2-b]pyridin-7-yloxy)-2-methylindole-1-carboxylic acid (4-hydroxybut-2-ynyl)amide]	–	–
–	0.14 nM	96%	CNC(=O)n1c(C)cc2cc(Oc3ccnc4cc(C(=O)N5CCC[C@@H]5COC)sc34)ccc21 [Example 4e, 5-[2-(2R-Methoxymethyl-pyrrolidine-1-carbonyl)-thieno[3,2-b]pyridin-7-yloxy]-2-methyl-indole-1-carboxylic acid methylamide]	14 nM	–
0.149 nM	0.85 nM	95%	C#CCNC(=O)n1c(C)cc2cc(Oc3ccnc4cc(C(=O)N5CC[C@H](OC)C5)sc34)ccc21 [Example 4f, 5-[2-(3S-Methoxy-pyrrolidine-1-carbonyl)-thieno[3,2-b]pyridin-7-yloxy]-2-methyl-indole-1-carboxylic acid prop-2-ynylamide]	–	–
0.58 nM and 0.98 nM	0.23 nM	97%	CNC(=O)n1c(C)cc2cc(Oc3ccnc4cc(C(=O)N5CC[C@H](OC)C5)sc34)ccc21 [Example 4g, 5-[2-(3S-Methoxy-pyrrolidine-1-carbonyl)-thieno[3,2-b]pyridin-7-yloxy]-2-methyl-indole-1-carboxylic acid methylamide]	–	–
0.116 nM and 0.34 nM and 0.21 nM	1.6 nM	91%	CO[C@H]1CCN(C(=O)c2cc3nccc(Oc4ccc5c(c4)cc(C)n5C(=O)NC4CC4)c3s2)C1 [Example 4h, 5-[2-(3S-Methoxy-pyrrolidine-1-carbonyl)-thieno[3,2-b]pyridin-7-yloxy]-2-methyl-indole-1-carboxylic acid cyclopropylamide]	–	–
0.09 nM	0.19 nM	96%	C#CCNC(=O)n1c(C)cc2cc(Oc3ccnc4cc(C(=O)N5CC[C@@H](OC)C5)sc34)ccc21 [Example 4l, 5-[2-(3R-Methoxy-pyrrolidine-1-carbonyl)-thieno[3,2-b]pyridin-7-yloxy]-2-methyl-indole-1-carboxylic acid prop-2-ynylamide]	–	–
0.35 nM and 0.16 nM and 0.167 nM	0.62 nM	99%	CNC(=O)n1c(C)cc2cc(Oc3ccnc4cc(C(=O)N5CC[C@@H](O)C5)sc34)ccc21 [Example 4n, 5-[2-(3R-Hydroxy-pyrrolidine-1-carbonyl)-thieno[3,2-b]pyridin-7-yloxy]-2-methyl-indole-1-carboxylic acid methylamide]	–	–
0.22 nM	0.25 nM	98%	Cc1cc2cc(Oc3ccnc4cc(C(=O)N5CC[C@@H](O)C5)sc34)ccc2n1C(=O)NC1CC1 [Example 4p, 5-[2-(3R-Hydroxy-pyrrolidine-1-carbonyl)-thieno[3,2-b]pyridin-7-yloxy]-2-methyl-indole-1-carboxylic acid cyclopropylamide]	–	–
0.256 nM and 0.52 nM and 0.237 nM	0.431 nM	100%	C#CCNC(=O)n1c(C)cc2c(F)c(Oc3ccnc4cc(C(=O)N5CCC[C@H]5CO)sc34)ccc21 [Example 5e, 4-Fluoro-5-[2-(2S-hydroxymethyl-pyrrolidine-1-carbonyl)-thieno[3,2-b]pyridin-7-yloxy]-2-methyl-indole-1-carboxylic acid prop-2-ynylamide]	–	–
0.123 nM and 0.31 nM	0.32 nM	99%	C#CCNC(=O)n1c(C)c(Cl)c2c(F)c(Oc3ccnc4cc(C(=O)N5CC[C@H](O)C5)sc34)ccc21 [Example 6d, 3-Chloro-4-fluoro-5-[2-(3S-hydroxy-pyrrolidine-1-carbonyl)-thieno[3,2-b]pyridin-7-yloxy]-2-methyl-indole-1-carboxylic acid prop-2-ynylamide]	–	–
1 nM	0.932 nM	90%	Cc1cc2cc(Oc3ccnc4cc(C(=O)N5CC[C@H](O)C5)sc34)ccc2n1C(=O)NCCO [Example 9k, 5-[2-(3S-Hydroxy-pyrrolidine-1-carbonyl)-thieno[3,2-b]pyridin-7-yloxy]-2-methyl-indole-1-carboxylic acid (2-hydroxy-ethyl)-amide]	–	–
